Legend:
[1] = system: Pasteurella multocida 17E; experiment: MIC, broth-dilution microtiter test (Table III); assay type: cell-based; parameters: unit not given here; conditions: bovine isolate
Experimental: (§1) The MIC's in Table II were determined by standard agar-dilution assays. The MIC's in Table III were obtained using a conventional broth-dilution microtiter test.

Mycoplasma synoviae = experiment: MIC, broth-dilution microtiter test (Table III); assay type: cell-based; parameters: unit not given here
Experimental: as §1

[2] = system: Pasteurella multocida 60A; experiment: MIC, broth-dilution microtiter test (Table III); assay type: cell-based; parameters: unit not given here; conditions: avian isolate
Experimental: as §1

Mycoplasma hyorhinis = experiment: MIC, broth-dilution microtiter test (Table III); assay type: cell-based; parameters: unit not given here
Experimental: as §1

Streptococcus sp. 80 = experiment: MIC, broth-dilution microtiter test (Table III); assay type: cell-based; parameters: unit not given here
Experimental: as §1

Staphylococcus aureus = experiment: MIC, broth-dilution microtiter test (Table III); assay type: cell-based; parameters: unit not given here
Experimental: as §1

Mycoplasma gallisepticum = experiment: MIC, broth-dilution microtiter test (Table III); assay type: cell-based; parameters: unit not given here
Experimental: as §1

Pasteurella multocida = experiment: Treatment of Pasteurella infections in chicks (Table V); assay type: in vivo, one-day-old chicks; conditions: Pasteurella multocida, sc, 4 h; 30 mg/kg by subcutaneous injection one and four hours post challenge; read-out: Deaths in Treated Chicks/Number Treated (converted)
Experimental: Certain OMT ester derivatives are active in vivo against Pasteurella infections. Table V summarizes the results of tests in which the ester derivatives were administered to one-day-old chicks at a dosage level of 30 mg/kg by subcutaneous injection one and four hours post challenge of the chicks with Pasteurella multocida (0.1 ml of a 10^-3 dilution of a 20-hour tryptose broth culture of avian P. multocida given subcutaneously). All nonmedicated infected chicks (ten in each control group) died within 24 hours of Pasteurella challenge.

[3] = system: Staphylococcus aureus V41; experiment: MIC, standard agar-dilution assay (Table II); assay type: cell-based; parameters: unit not given here; conditions: Staphylococcus aureus V41, penicillin-resistant strain
Experimental: as §1

[4] = system: Staphylococcus epidermidis EPI2; experiment: MIC, standard agar-dilution assay (Table II); assay type: cell-based; parameters: unit not given here
Experimental: as §1

[5] = system: Streptococcus pyogenes C203; experiment: MIC, standard agar-dilution assay (Table II); assay type: cell-based; parameters: unit not given here
Experimental: as §1

[6] = system: Staphylococcus aureus X1.1; experiment: MIC, standard agar-dilution assay (Table II); assay type: cell-based; parameters: unit not given here
Experimental: as §1

[7] = system: Haemophilus influenzae Holt; experiment: MIC, standard agar-dilution assay (Table II); assay type: cell-based; parameters: unit not given here; conditions: ampicillin-sensitive strain
Experimental: as §1

[8] = system: Haemophilus influenzae R252; experiment: MIC, standard agar-dilution assay (Table II); assay type: cell-based; parameters: unit not given here; conditions: Haemophilus influenzae R252, ampicillin-resistant strain
Experimental: as §1

[9] = system: Streptococcus Group D 9960; experiment: MIC, standard agar-dilution assay (Table II); assay type: cell-based; parameters: unit not given here
Experimental: as §1

[10] = system: Streptococcus Group D X66; experiment: MIC, standard agar-dilution assay (Table II); assay type: cell-based; parameters: unit not given here
Experimental: as §1

[11] = system: Streptococcus pneumoniae Park I; experiment: MIC, standard agar-dilution assay (Table II); assay type: cell-based; parameters: unit not given here
Experimental: as §1

[12] = system: Staphylococcus aureus S13E; experiment: MIC, standard agar-dilution assay (Table II); assay type: cell-based; parameters: unit not given here
Experimental: as §1

[13] = system: Staphylococcus aureus X400; experiment: MIC, standard agar-dilution assay (Table II); assay type: cell-based; parameters: unit not given here; conditions: Staphylococcus aureus X400, methicillin-resistant strain
Experimental: as §1

[14] = system: Staphylococcus epidermidis EPI1; experiment: MIC, standard agar-dilution assay (Table II); assay type: cell-based; parameters: unit not given here
Experimental: as §1

[15] = system: Pasteurella multocida 68C; experiment: MIC, broth-dilution microtiter test (Table III); assay type: cell-based; parameters: unit not given here
Experimental: as §1

[16] = system: Pasteurella haemolytica 23C; experiment: MIC, broth-dilution microtiter test (Table III); assay type: cell-based; parameters: unit not given here
Experimental: as §1

[17] = system: Pasteurella haemolytica 41D; experiment: MIC, broth-dilution microtiter test (Table III); assay type: cell-based; parameters: unit not given here
Experimental: as §1

[18] = system: Pasteurella haemolytica 22C; experiment: MIC, broth-dilution microtiter test (Table III); assay type: cell-based; parameters: unit not given here
Experimental: as §1

[19] = system: Pasteurella multocida 22A; experiment: MIC, broth-dilution microtiter test (Table III); assay type: cell-based; parameters: unit not given here
Experimental: as §1

SMILES | minimal inhibitory concentration (MIC) [1] | minimal inhibitory concentration (MIC) (Mycoplasma synoviae) | minimal inhibitory concentration (MIC) [2] | minimal inhibitory concentration (MIC) (Mycoplasma hyorhinis) | minimal inhibitory concentration (MIC) (Streptococcus sp. 80) | minimal inhibitory concentration (MIC) (Staphylococcus aureus) | minimal inhibitory concentration (MIC) (Mycoplasma gallisepticum) | mortality at 30 mg/kg (Pasteurella multocida) [%] | minimal inhibitory concentration (MIC) [3] | minimal inhibitory concentration (MIC) [4] | minimal inhibitory concentration (MIC) [5] | minimal inhibitory concentration (MIC) [6] | minimal inhibitory concentration (MIC) [7] | minimal inhibitory concentration (MIC) [8] | minimal inhibitory concentration (MIC) [9] | minimal inhibitory concentration (MIC) [10] | minimal inhibitory concentration (MIC) [11] | minimal inhibitory concentration (MIC) [12] | minimal inhibitory concentration (MIC) [13] | minimal inhibitory concentration (MIC) [14] | further results
CCCCC(=O)OCC1C=C(C)C=CC(=O)C(C)CC(CC=O)C(OC2OC(C)C(O)C(N(C)C)C2O)C(C)C(O)CC(=O)OC1CC (stereo not shown) [Compound 20] | 1.56 | < 0.05 | 3.12 | 3.12 | 0.39 | 0.39 | < 0.05 | 0 | 0.25 | 0.25 | 0.25 | 0.25 | 2 | 2 | 0.5 | 0.5 | 0.06 | 0.25 | 0.5 | 0.25 | 
CCCCCCCC(=O)OCC1C=C(C)C=CC(=O)C(C)CC(CC=O)C(OC2OC(C)C(OC(C)=O)C(N(C)C)C2OC(C)=O)C(C)C(O)CC(=O)OC1CC (stereo not shown) [Compound 23] | 6.25 | 0.39 | 6.25 | 3.12 | 0.39 | 0.78 | 0.097 | 100 | 0.5 | 0.5 | 0.5 | 0.25 | 8 | 8 | 1 | 1 | 0.25 | 0.5 | 1 | 0.5 | 
CCC1OC(=O)CC(O)C(C)C(OC2OC(C)C(O)C(N(C)C)C2O)C(CC=O)CC(C)C(=O)C=CC(C)=CC1COC(=O)C(C)C (stereo not shown) [Compound 18] | 1.56 | < 0.05 | 3.12 | 0.39 | 0.195 | 0.78 | < 0.05 | 0 | 0.5 | 0.5 | 0.5 | 0.25 | 2 | 4 | 0.5 | 0.5 | 0.25 | 0.25 | 0.5 | 0.25 | 
CCC1OC(=O)CC(O)C(C)C(OC2OC(C)C(OC(C)=O)C(N(C)C)C2OC(C)=O)C(CC=O)CC(C)C(=O)C=CC(C)=CC1COS(C)(=O)=O (stereo not shown) [Compound 45] | 3.12 | 0.39 | 1.56 | 3.12 | 0.195 | 0.78 | 0.39 | 100 | 2 | 2 |  | 1 |  |  | 1 | 1 |  | 1 | 2 | 0.5 | minimal inhibitory concentration (MIC) [15]: 1.56; minimal inhibitory concentration (MIC) [16]: 3.12; minimal inhibitory concentration (MIC) [17]: 6.25; minimal inhibitory concentration (MIC) [18]: 6.25; minimal inhibitory concentration (MIC) [19]: 3.12
CCCC(=O)OCC1C=C(C)C=CC(=O)C(C)CC(CC=O)C(OC2OC(C)C(OC(C)=O)C(N(C)C)C2OC(C)=O)C(C)C(O)CC(=O)OC1CC (stereo not shown) [Compound 15] | 1.56 | < 0.05 | 1.56 | 0.78 | 0.097 | 0.39 | < 0.05 | 100 | 0.5 | 0.5 | 0.25 | 0.25 | 2 | 2 | 0.5 | 0.5 | 0.25 | 0.25 | 0.5 | 0.25 | 
CCC1OC(=O)CC(O)C(C)C(OC2OC(C)C(OC(C)=O)C(N(C)C)C2OC(C)=O)C(CC=O)CC(C)C(=O)C=CC(C)=CC1COC(=O)C(C)C (stereo not shown) [Compound 17] | 1.56 | < 0.05 | 3.12 | 0.39 | < 0.05 | 0.195 | < 0.05 | 100 | 1 | 1 | 1 | 1 | 4 | 4 | 1 | 1 | 0.25 | 1 | 1 | 0.5 | 
CCCCCCCC(=O)OCC1C=C(C)C=CC(=O)C(C)CC(CC=O)C(OC2OC(C)C(O)C(N(C)C)C2OC(C)=O)C(C)C(O)CC(=O)OC1CC (stereo not shown) [Compound 25] | 6.25 | 1.56 | 6.25 | 0.78 | 0.195 | 0.097 | < 0.05 | 100 | 0.25 | 0.5 |  | 0.25 |  |  | 0.5 | 1 |  | 0.25 | 0.5 | 0.25 | minimal inhibitory concentration (MIC) [15]: 6.25; minimal inhibitory concentration (MIC) [16]: 12.5; minimal inhibitory concentration (MIC) [17]: 12.5; minimal inhibitory concentration (MIC) [18]: 12.5; minimal inhibitory concentration (MIC) [19]: 25

Source: US4401660A, “Ester derivatives of 5-O-mycaminosyl tylonolide and method of using same” (Eli Lilly and Company, priority 1981, dated 1983)
